Results taken from article PMC7591795, “Humulone Modulation of GABAA Receptors and Its Role in Hops Sleep-Promoting Activity” (Frontiers in Neuroscience, 2020).
Converted amounts (≈) assume the structure as drawn. “Also recorded” adds a separate entry of the source. Where two headings read alike, the source gives them in different places. Blank lines part the entries; values can stand above or below the compound they belong to.

Tests used:
[1] = test system: native αβγ2 GABAA receptors, classical benzodiazepine binding site; parameters: method as in Benkherouf et al., 2019, 2020; conditions: ref Benkherouf et al., 2019, 2020, cited from earlier work
[2] = test system: native GABAA receptors in rat forebrain membranes; experiment: [3H]EBOB binding assay, rat forebrain membranes; conditions: each compound 1 μM, GABA 3 μM, n = 3
Experimental: (§1) The protein concentrations of brain membranes were determined with the Bio-Rad Coomassie blue dye-based protein assay kit (Hercules, CA, United States) as per the manufacturer’s protocol. Transfected HEK293 cells were harvested 48 h after transfection using a detaching buffer (10 mM Tris-HCl, 0.15 M NaCl, 2 mM EDTA) and centrifuged at 20,000 g for 10 min at +4 °C. The resulting pellets were suspended in the assay buffer for binding assays.
(§2) In humulone concentration series with recombinant α6β3, α6β3γ2S, and α6β3δ receptors, HEK293 cell membranes were incubated in the same above conditions for 120 min with [^3H]EBOB (1 nM) and different concentrations of humulone (30 nM–30 μM) in the presence or absence of ethanol (30 mM). […] Picrotoxin (100 μM) was used to determine the non-specific binding in all assays.
(§3) Membrane samples were filtered through Whatman GF/B glass fiber filters (Whatman International Ltd., Maidstone, United Kingdom) using a Brandel Cell Harvester (model M-24, Gaithersburg, MD, United States). The filters were rinsed three times with 5 mL of ice-cold 10 mM Tris-HCl, pH 7.4 buffer. Air-dried filters were immersed in 3 mL of Hidex AquaLight Beta scintillation liquid and radioactivity was determined in Hidex 600 SL liquid scintillation counter (Hidex, Turku, Finland).

[3] = test system: native GABAA receptors in rat forebrain membranes; parameters: method as in Benkherouf et al., 2020; conditions: ref Benkherouf et al., 2020, cited from earlier work
[4] = test system: GABAA receptors; parameters: method as in Benkherouf et al., 2020; conditions: ref Benkherouf et al., 2020; cited from earlier work
[5] = test system: native GABAA receptors in rat cerebellar membranes; type: binding
Experimental: as §1, §2, §3

[6] = target: T1, recombinant α6β3γ2 GABAA receptors (Rattus norvegicus, UniProt P18508+P30191+P63079); experiment: [3H]EBOB binding assay, recombinant α6β3γ2 receptors in HEK293 cell membranes; conditions: GABA 3 μM
T1 construct: expressed in transfected cells; host or cells: HEK293 cells, transient CaPO4 transfection, pRK5 plasmids; cell membranes used
Experimental: (§4) The cells were divided and plated on 150 mm culture dishes for binding assays and 12 mm coverslips in 24-well cell culture plates for electrophysiology 24 h before transfection.
(§5) The cells were transiently transfected with rat cDNAs encoding GABAA receptor subunits (α1, L08490; α6, L08495; β3, X15468; γ2S, L08497; δ, L08496) in pRK5 plasmids under the control of CMV promoter ([Uusi-Oukari et al., 2000]). The plasmids were used in 1:1 and 1:1:1 ratio for transfections containing α1β3γ2S, α6β3, α6β3γ2S, and α6β3δ receptor subtypes. […] (Supplementary Figure S1). For electrophysiology, K4® transfection system (Biontex, München, Germany) was used according to the manufacturer’s protocol to increase expression efficiency and cell viability. […] The medium was changed 24 h after transfection and all experiments were performed 48 h after transfection.
as §1, §2, §3

[7] = target: T2, recombinant α6β3δ GABAA receptors (Rattus norvegicus, UniProt P18506+P30191+P63079); experiment: [3H]EBOB binding assay, recombinant α6β3δ receptors in HEK293 cell membranes; conditions: GABA 3 μM
T2 construct: expressed in transfected cells; host or cells: HEK293 cells, transient CaPO4 transfection, pRK5 plasmids; cell membranes used
Experimental: as §4, §5, §1, §2, §3

[8] = target: T3, recombinant α6β3 GABAA receptors (Rattus norvegicus, UniProt P30191+P63079); experiment: [3H]EBOB binding assay, recombinant α6β3 receptors in HEK293 cell membranes; conditions: GABA 3 μM
T3 construct: expressed in transfected cells; host or cells: HEK293 cells, transient CaPO4 transfection, pRK5 plasmids (1:1); cell membranes used
Experimental: as §4, §5, §1, §2, §3

[9] = test system: mice; parameters: method as in Schiller et al., 2006; conditions: ref Schiller et al., 2006, cited from earlier work
[10] = test system: BALB/cAnNRj mice; experiment: Ethanol-induced sleep test; conditions: ethanol 3.5 g/kg i.p.; for duration of sleep induced by ethanol: vs control
[11] = test system: rats; conditions: ref Bejeuhr, 1993, cited from earlier work
[12] = test system: BALB/cAnNRj mice; experiment: Pentobarbital-induced sleep test
Experimental: As an index of drug-induced CNS inhibition, sleep latency (time between pentobarbital administration and loss of righting reflex) and duration of sleep (time between loss and recovery of righting reflex) were measured with a chronometer for each mouse. The recovery of the righting reflex was confirmed by the ability of the mice to re-right 3 times within 1 min. The drugs were freshly prepared before use, and the total injection volume (13 mL/kg) was retained constant.

[13] = test system: BALB/cAnNRj mice; experiment: Open field test (spontaneous locomotor activity); type: in vivo
Experimental: Each mouse was then placed individually into the center of a brightly illuminated white Plexiglass arena (50 × 50 × 38 cm) and recorded continuously for 15 min with Ethovision version 13 tracking system (Noldus, Wageningen, The Netherlands). The parameters of locomotor activity such as distance and velocity were quantified and analyzed for the whole and subsections of the arena. All arena surfaces were thoroughly cleaned with 70% ethanol and dried between each tested subject.

[14] = parameters: method as in Fritsch and Shellhammer, 2007; conditions: ref Fritsch and Shellhammer, 2007; cited from earlier work
[15] = target: T4, recombinant α1β3γ2 GABAA receptors (Rattus norvegicus, UniProt P18508+P62813+P63079); experiment: Whole-cell patch-clamp of GABA-induced currents in transfected HEK293 cells; type: cell-based; conditions: humulone 10 μM, GABA 1 μM, 1 min application, −60 mV, n = 8 cells
T4 construct: expressed in transfected cells; host or cells: HEK293 cells, transient transfection (K4 transfection system), pRK5 plasmids; EGFP co-transfected from a separate pWPI plasmid
Experimental: Human embryonic kidney (HEK) 293 cells (Sigma- Aldrich, St Louis, MO, United States) were maintained in Dulbecco’s modified Eagle’s medium supplemented with 10% fetal bovine serum (Gibco, Gaithersburg, MD; United States), 50 U/mL penicillin and 50 μg/mL streptomycin (Sigma-Aldrich, St Louis, MO, United States) under standard growth conditions at 37°C, 95% humidity and 5% CO2. The cells were divided and plated on 150 mm culture dishes for binding assays and 12 mm coverslips in 24-well cell culture plates for electrophysiology 24 h before transfection.
The cells were transiently transfected with rat cDNAs encoding GABAA receptor subunits (α1, L08490; α6, L08495; β3, X15468; γ2S, L08497; δ, L08496) in pRK5 plasmids under the control of CMV promoter ([Uusi-Oukari et al., 2000]). The plasmids were used in 1:1 and 1:1:1 ratio for transfections containing α1β3γ2S, α6β3, α6β3γ2S, and α6β3δ receptor subtypes. For radioligand binding, CaPO4 precipitation method was used essentially as described earlier ([Lüddens and Korpi, 1997]). […]
The cells were continuously perfused with external HEK-Krebs solution containing (in mM): 140 NaCl, 4.7 KCl, 1.2 MgCl2, 2.52 CaCl2, 11 glucose, and 5 HEPES, pH 7.4 adjusted with […]. […] The external solution and drug solutions were driven by gravity at the flow rate of 5 mL/min and the current responses were recorded at room temperature (20–22°C).

[16] = ethanol 30 mM co-incubated with humulone 1 μM
[17] = humulone 10 mg/kg i.p., pentobarbital sodium 35 mg/kg i.p.
[18] = humulone 10 mg/kg i.p. vs control
[19] = humulone 20 mg/kg i.p., 45 min after administration, 15 min observation, vs vehicle, p < 0.01

T3 sequence (P30191 20-453): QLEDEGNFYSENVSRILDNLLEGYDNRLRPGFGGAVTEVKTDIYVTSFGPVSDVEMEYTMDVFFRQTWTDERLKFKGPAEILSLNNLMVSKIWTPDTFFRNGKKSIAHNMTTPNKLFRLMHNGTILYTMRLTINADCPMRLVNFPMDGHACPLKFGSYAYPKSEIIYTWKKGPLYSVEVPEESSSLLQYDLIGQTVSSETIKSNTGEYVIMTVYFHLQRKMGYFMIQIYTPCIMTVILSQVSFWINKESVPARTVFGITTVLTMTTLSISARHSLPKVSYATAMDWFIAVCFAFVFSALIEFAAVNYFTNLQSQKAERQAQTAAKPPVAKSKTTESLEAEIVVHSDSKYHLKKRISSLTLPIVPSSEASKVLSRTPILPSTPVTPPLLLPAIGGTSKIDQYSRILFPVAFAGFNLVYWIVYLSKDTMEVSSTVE
T3 sequence (P63079 26-473): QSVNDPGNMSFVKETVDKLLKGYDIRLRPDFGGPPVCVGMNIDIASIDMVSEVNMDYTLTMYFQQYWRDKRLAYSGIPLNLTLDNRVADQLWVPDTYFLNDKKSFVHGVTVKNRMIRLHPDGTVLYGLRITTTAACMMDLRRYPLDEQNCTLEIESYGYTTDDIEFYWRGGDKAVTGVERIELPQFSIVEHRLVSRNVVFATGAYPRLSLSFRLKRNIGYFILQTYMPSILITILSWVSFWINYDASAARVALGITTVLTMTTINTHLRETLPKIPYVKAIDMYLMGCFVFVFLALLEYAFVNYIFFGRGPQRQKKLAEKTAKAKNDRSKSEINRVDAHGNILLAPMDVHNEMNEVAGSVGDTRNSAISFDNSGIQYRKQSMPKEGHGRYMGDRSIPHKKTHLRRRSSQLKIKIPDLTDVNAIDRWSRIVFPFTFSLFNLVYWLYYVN
T1 sequence (P30191 20-453): as the sequence (P30191 20-453) above
T1 sequence (P63079 26-473): as the sequence (P63079 26-473) above
T1 sequence (P18508 39-466): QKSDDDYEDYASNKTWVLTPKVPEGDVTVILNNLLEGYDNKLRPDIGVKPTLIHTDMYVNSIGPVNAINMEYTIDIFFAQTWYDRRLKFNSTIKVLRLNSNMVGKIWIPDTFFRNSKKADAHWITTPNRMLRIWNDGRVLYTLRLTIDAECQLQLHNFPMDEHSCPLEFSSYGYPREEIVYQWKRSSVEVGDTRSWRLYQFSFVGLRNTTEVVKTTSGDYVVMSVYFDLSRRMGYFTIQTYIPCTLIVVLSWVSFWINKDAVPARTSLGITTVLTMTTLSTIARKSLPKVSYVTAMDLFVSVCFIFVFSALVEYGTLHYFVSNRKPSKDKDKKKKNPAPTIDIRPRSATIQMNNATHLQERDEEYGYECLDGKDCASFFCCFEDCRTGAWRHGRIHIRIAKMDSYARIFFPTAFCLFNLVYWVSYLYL
T2 sequence (P30191 20-453): as the sequence (P30191 20-453) above
T2 sequence (P63079 26-473): as the sequence (P63079 26-473) above
T2 sequence (P18506 25-449): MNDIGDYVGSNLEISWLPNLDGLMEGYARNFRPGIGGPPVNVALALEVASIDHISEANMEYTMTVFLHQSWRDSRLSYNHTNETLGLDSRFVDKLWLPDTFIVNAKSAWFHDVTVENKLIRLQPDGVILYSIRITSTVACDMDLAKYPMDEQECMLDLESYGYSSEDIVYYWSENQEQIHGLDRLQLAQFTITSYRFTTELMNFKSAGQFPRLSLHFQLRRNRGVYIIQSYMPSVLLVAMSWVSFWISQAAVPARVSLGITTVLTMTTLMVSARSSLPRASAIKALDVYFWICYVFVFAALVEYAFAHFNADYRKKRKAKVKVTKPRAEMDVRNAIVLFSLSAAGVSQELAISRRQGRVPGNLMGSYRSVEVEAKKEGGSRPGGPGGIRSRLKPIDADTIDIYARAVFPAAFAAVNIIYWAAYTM
T4 sequence (P62813 28-455): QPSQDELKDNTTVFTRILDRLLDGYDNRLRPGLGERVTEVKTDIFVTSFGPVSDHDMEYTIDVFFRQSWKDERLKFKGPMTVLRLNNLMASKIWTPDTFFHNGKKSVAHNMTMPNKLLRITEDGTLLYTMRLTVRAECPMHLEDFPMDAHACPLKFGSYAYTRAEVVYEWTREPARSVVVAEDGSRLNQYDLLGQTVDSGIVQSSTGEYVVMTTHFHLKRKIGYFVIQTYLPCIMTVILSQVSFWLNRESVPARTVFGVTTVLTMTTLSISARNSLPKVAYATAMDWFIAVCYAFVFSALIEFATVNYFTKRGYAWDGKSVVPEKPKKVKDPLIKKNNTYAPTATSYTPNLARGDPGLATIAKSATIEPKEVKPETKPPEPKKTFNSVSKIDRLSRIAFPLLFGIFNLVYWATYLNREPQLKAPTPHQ
T4 sequence (P63079 26-473): as the sequence (P63079 26-473) above
T4 sequence (P18508 39-466): as the sequence (P18508 39-466) above

SMILES: CC(C)=CCc1c(O)cc2c(c1O)C(=O)C[C@@H](c1ccc(O)cc1)O2 [6PN, 6-prenylnaringenin]
- displacement of [3H]Ro 15-4513 binding (benzodiazepine binding site) [1]: remarkably more efficient
- [3H]EBOB displacement normalized to the maximum radioligand binding in the presence of 3 μM GABA alone [2]: 14.2 ± 1.4%
- sensitivity of modulatory effect on [3H]EBOB binding to flumazenil antagonism [3]: insensitivity

- [3H]EBOB displacement normalized to the maximum radioligand binding in the presence of 3 μM GABA alone [2]: 14.4 ± 0.9%
SMILES: COc1cc(O)c(CC=C(C)C)c2c1C(=O)CC(c1ccc(O)cc1)O2 (stereo not drawn) [IXN, isoxanthohumol]

SMILES: CCC(C)C(=O)C1=C(O)C(CC=C(C)C)=C(O)C(O)(CC=C(C)C)C1=O (stereo not drawn) [adhumulone]
- modulatory effects on GABAA receptors [4]: weak modulatory effects

SMILES: CC(C)=CCC1=C(O)C(O)(CC=C(C)C)C(=O)C(C(=O)C(C)C)=C1O (stereo not drawn) [cohumulone]
- modulatory effects on GABAA receptors [4]: weak modulatory effects

SMILES: CCO [ethanol]
- effect of ethanol solely on [3H]EBOB binding [5]: neither displaces nor modulates
- ethanol enhancement of humulone-mediated [3H]EBOB displacement [6, 16]: did not alter; also recorded: did not enhance
- effect of ethanol alone on GABA-induced [3H]EBOB binding ([6]; ethanol 30 mM): unaffected
- ethanol enhancement of humulone-mediated [3H]EBOB displacement ([7]; ethanol 30 mM co-incubated with humulone 1 μM, α6β3δ): did not significantly enhance
- effect of ethanol alone on GABA-induced [3H]EBOB displacement ([7]; ethanol 30 mM, α6β3δ): no effect; also recorded: unaffected
- ethanol enhancement of humulone-mediated [3H]EBOB displacement [8, 16]: did not alter; also recorded: did not enhance
- effect of ethanol alone on GABA-induced [3H]EBOB binding ([8]; ethanol 30 mM): unaffected

SMILES: CC(C)=CCC1=C(O)[C@@](O)(CC=C(C)C)C(=O)C(C(=O)CC(C)C)=C1O [humulone]
- extent of humulone non-competitive synergy with ethanol, cerebellum compared to forebrain ([5]; humulone 1 μM + ethanol 30 mM, from Table 1): 11.2%
- duration of sleep induced by ketamine ([9]; humulone component in alpha acid extract at 21 mg/kg): increase
- duration of sleep induced by ketamine, additional effect at higher dose ([9]; humulone component in alpha acid extract at 42 mg/kg): no additional effect
- concentration at which potentiation of GABA-induced [3H]EBOB displacement was observed [6]: ≥ 10 µM
- effect on [3H]EBOB displacement induced by GABA ([6]; humulone 1 μM): absent
- displacement of [3H]Ro 15-4513 binding (benzodiazepine binding site) [1]: very weak displacement
- displacement of [3H]Ro 15-4513 binding (benzodiazepine binding site) ([1]; listed as humulone fraction): low potency
- duration of sleep induced by ethanol ([10]; humulone 10 mg/kg i.p., p < 0.05): significantly increased
- duration of sleep induced by ethanol ([10]; humulone 20 mg/kg i.p., p < 0.001): significantly increased
- onset of sleep induced by ethanol ([10]; humulone 10 or 20 mg/kg i.p.): no effect
- LD50 ([11]; i.m. (rats)): 600 mg/kg/b.w.
- LD50 ([11]; p.o., rodents): 1,500 mg/kg/b.w.
- duration of sleep induced by pentobarbital [12, 17]: not observed
- sleep latency induced by pentobarbital [12, 17]: not observed
- duration of sleep induced by pentobarbital ([12]; humulone 20 mg/kg i.p., 45 min before pentobarbital sodium 35 mg/kg i.p., vs control, p < 0.001): prolonged
- sleep latency induced by pentobarbital ([12]; humulone 20 mg/kg i.p., 45 min before pentobarbital sodium 35 mg/kg i.p., vs control, p < 0.01): significantly decreased
- significant difference in average velocity in open field [13, 18]: not observed
- significant difference in total distance traveled in open field [13, 18]: not observed
- average velocity in open field [13, 19]: lower
- total distance traveled in open field [13, 19]: shorter
- time spent in periphery and center in open field ([13]; humulone 10 and 20 mg/kg i.p. vs vehicle, Supplementary Figure S3): no differences
- solubility in beer [14]: 14 µg/mL (≈ 38.6 µM)
- [3H]EBOB displacement normalized to the maximum radioligand binding in the presence of 3 μM GABA alone [2]: 13.5 ± 1.5%
- potentiation of GABA-induced peak current amplitude, normalized to 1 μM GABA alone [15]: 158 ± 41%
- concentration at which potentiation of GABA-induced [3H]EBOB displacement was evident ([7]; α6β3δ): ≥ 1 µM
- increase in potency in α6β3δ compared to α6β3 receptors ([7]; ratio of IC50 values): 6.7 fold
- increase in potency in α6β3δ compared to α6β3γ2 receptors ([7]; ratio of IC50 values): 5.8 fold
- IC50 ([3]; rat forebrain membranes, read-out: IC50, modulation of [3H]EBOB binding): 3.2 ± 0.4 µM
- sensitivity of modulatory effect on [3H]EBOB binding to flumazenil antagonism [3]: insensitive
- sensitivity of modulatory effect on [3H]EBOB binding to flumazenil antagonism ([3]; listed as humulone fraction): insensitivity
- concentration at which potentiation of GABA-induced [3H]EBOB displacement was observed [8]: ≥ 10 µM
- effect on [3H]EBOB displacement induced by GABA ([8]; humulone 1 μM): absent
